Results published in patent US20060217340A1, “Methods and products for treating hypertension by modulation of TRPC3 channel activity” (University of Vermont and State Agricultural College, priority 2005, published 2006).
Entries after “also recorded” stand apart in the source; their conditions may differ.

Experiments:
cerebral artery SMCs = assay: Membrane potential recordings in pressurized cerebral arteries; type: cell-based, rat; settings: for resting membrane potential (Vm): before UTP; for pressure-induced depolarization of arterial SMCs: intravascular pressure increased from 20 to 80 mm Hg
Excerpt: Oligodeoxynucleotide Sequences and Reverse Permeabilization. TRPC6 sense and antisense oligodeoxynucleotides (ODN's) were designed as previously described (Welsh et al 2002 Circ Res 90, 248-250) and were as follows: sense, 5′-[…]-3′ (SEQ ID: 3) and 5′-GCACACGCAGCCTCTTCAC-3′ (SEQ ID: 4) antisense, 5′-[…]-3′ (SEQ ID: 5) and 5′-[…]-3′ (SEQ ID: 6). TRPC3 sense and antisense ODN's were designed based on the rat TRPC3 gene (Ohki et al 2000 J Biol Chem 275: 39055-39060) and are as follows: sense, 5′-[…]-3′ (SEQ ID: 7) and 5′-[…]-3′ (SEQ ID: 8); anti-sense, 5′-[…]-3′ (SEQ ID: 9) and 5′-[…]-3′ (SEQ ID: 10). The last five bases on the 5′ and 3′ end were phosphorothioated in order to limit ODN degradation. For some experiments fluoroscein-isothiocyanate was conjugated to the 5′ end to allow for histological assessment of cellular uptake of the ODNs. All ODNs were synthesized and HPLC purified commercially by Qiagen (Alameda, Calif., USA). Sense and antisense ODN's (2 μM) were introduced into the arterial SMs using a reversible permeabilization procedure (Lesh et al 1995 Circ Res 77,220-230)). The arterial segments were then organ cultured for 3 days in D-MEM/F-12 culture media with L-glutamine (2 mM), penicillin (50 units/ml) and streptomycin (50 μg/ml) prior to use.
Diameter and membrane potential recordings. Endothelial cell denuded artery segments were mounted on glass pipettes in an arteriograph chamber (Living Systems, Burlington, Vt., USA), pressurized to 20 mmHg (with no flow), and superfused with warm (37° C.), gassed (95% 02/5% CO2) physiological saline solution (PSS) containing (in mM): 119 NaCl, 4.7 KCl, 24 NaHCO3, 0.2 KH2PO4, […], 1.2 MgSO4, 1.6 CaCl2, and 10.6 glucose, pH 7.4. In experiments using Ca^2+-free PSS, CaCl2 was omitted and 3 mM EGTA and 30 μM diltiazem added. In experiments with diacylglycerol induction, 300 μM of the diacylglycerol analogue OAG (1-oleyol-2-acetyl-sn-glycerol) was added. The endothelium was removed as previously described (Sun et al 1993 Endothelium 1, 115-122). To verify endothelial cell removal the arteries were pressurized to 60 mmHg and allowed to develop myogenic tone prior to exposing the vessels to 1 μM UTP. Absence of a dilation or biphasic constrictor response to 1 μM UTP indicated successful endothelial cell removal (Marelli 2001 Am J Physiol Heart Cir Physiol 281, H1759-H1766; Miyagi et al 1996 Br J Pharmacol 118, 847-856). Arterial diameter or membrane potential (Vm) of sense and anti-sense treated arteries was measured in the absence (control) or presence of UTP (concentration range: 0.1 to 10 μM). Membrane potential was measured by inserting a sharp glass electrode (≈100 MΩ resistance) containing 0.5M KCl into the vessel wall. The criteria for successful vascular smooth muscle cell impalement were: (1) a sharp negative Vm deflection on entry; (2) a stable potential for at least 1 minute after entry; and (3) a sharp positive Vm deflection upon removal. Measurements were made using an electrometer (World Precision Instruments) and the data were recorded via computer using Axotape and Dataq software. Arterial diameter was measured using a video dimension analyzer (IonOptix Corporation; Milton, Mass.).

[1] = system: pressurized rat cerebral arteries; assay: Arterial wall Ca2+ concentration measurement (FURA-2) in isolated arteries; type: cell-based; settings: for change in arterial wall Ca2+: Ca2+ returned to superfusate in the presence of UTP and nimodipine
Experimental: Diameter and membrane potential recordings. […] In experiments using Ca^2+-free PSS, CaCl2 was omitted and 3 mM EGTA and 30 μM diltiazem added. In experiments with diacylglycerol induction, 300 μM of the diacylglycerol analogue OAG (1-oleyol-2-acetyl-sn-glycerol) was added. […] To verify endothelial cell removal the arteries were pressurized to 60 mmHg and allowed to develop myogenic tone prior to exposing the vessels to 1 μM UTP. […] Arterial diameter or membrane potential (Vm) of sense and anti-sense treated arteries was measured in the absence (control) or presence of UTP (concentration range: 0.1 to 10 μM). Membrane potential was measured by inserting a sharp glass electrode (≈100 MΩ resistance) containing 0.5M KCl into the vessel wall. […] Measurements were made using an electrometer (World Precision Instruments) and the data were recorded via computer using Axotape and Dataq software. Arterial diameter was measured using a video dimension analyzer (IonOptix Corporation; Milton, Mass.).
Ca^2+ concentration measurement in isolated arteries. Mounted arteries were equilibrated in 1.6 m M PSS for 40 minutes at 37° C. (pH 7.4) prior to loading the vascular smooth muscle cells with the Ca^2+-sensitive fluorescent dye, FURA-2. To load the cells, the 1.6 mM PSS was gradually replaced over 5 minutes with HEPES solution (25° C., pH 7.4). A total of 40 μL of a premixed 100 μM FURA-2-acetoxymethyl ester solution (100 μg FURA-2, 200 μL Pluronic acid, 800 μL DMSO) was added directly to the HEPES to give a final concentration of 2 μM FURA-2 AM. Loading continued in the dark at 25° C. (pH 7.4) for 40 minutes. At the end of the loading period, the HEPES was replaced with 1.6 mM PSS (35° C., pH 7.4) and 30 minutes was allowed for complete de-esterification of the FURA-2 AM before [Ca^2+]c measurements were made. FURA-2 fluorescence was measured using a photomultiplier system (IonOptix Corporation; Milton, Mass., USA) in which background-corrected ratios of the 510-nm emission from arteries alternatively excited at 340 and 380 nm were obtained at a sampling rate of 5 Hz.

Substance	UTP-induced depolarization of SMCs versus sense-treated arteries (cerebral artery SMCs; all UTP concentrations tested)	resting membrane potential (Vm) (cerebral artery SMCs) [mV]	pressure-induced depolarization of arterial SMCs (cerebral artery SMCs) [mV]	increase in arterial wall Ca2+ ([1]; 300 μM OAG) [nM]	change in arterial wall Ca2+ [1] [nM]
5′-GAGAACCATGAACTGGAATA-3′ (SEQ ID: 9) and 5′-ACGACCAACACGACCAGACA-3′ (SEQ ID: 10) (phosphorothioate ends, further chemistry not given here) [TRPC3 antisense, antisense ODNs based on the rat TRPC3 gene; last five bases on the 5′ and 3′ end phosphorothioated]	significantly less; also recorded: significantly reduced	−49±2	14±1	6 ± 2	50 ± 12
5′-TATTCCAGTTCATGGTTCTC-3′ (SEQ ID: 7) and 5′-TGTCTGGTCGTGTTGGTCGT-3′ (SEQ ID: 8) (phosphorothioate ends, further chemistry not given here) [TRPC3 sense, sense control ODNs based on the rat TRPC3 gene; end bases phosphorothioated]		−50±1	14±1		100 ± 22
